{
  "source": "ChEMBL document CHEMBL1151258",
  "about": "“New cytotoxic cembranes from the sea pen Gyrophyllum sibogae” (2004)",
  "format_in_all_cases": "functional",
  "conditions_in_all_cases": "read-out: ED50 (the source's name)",
  "key": {"[1]": {"test_system": "K562", "assay": "Cytotoxicity against human K562 cells"}, "[2]": {"test_system": "HT-29", "assay": "Cytotoxicity against human HT-29 cells"}, "[3]": {"assay": "Cytotoxicity against human IGROV cells"}, "[4]": {"test_system": "DU-145", "assay": "Cytotoxicity against human DU145 cells"}},
  "data": [
    {"smiles": "C/C1=C/C=C(\\C(C)C)C(=O)[C@@H](O)[C@H](C)CCC(=O)[C@H](CO)CCC1", "values": [
      {"measurement": "EC50", "setting": "[1]", "value": 62.7, "unit": "nM"},
      {"measurement": "EC50", "setting": "[2]", "value": 14.5, "unit": "nM"},
      {"measurement": "EC50", "setting": "[3]", "value": 90.3, "unit": "nM"},
      {"measurement": "EC50", "setting": "[4]", "value": 82, "unit": "nM"}
    ]}
  ]
}
